Reference: US11466047B2, “Cyclic di-nucleotide compounds as sting agonists” (Merck Sharp & Dohme Corp., priority 2017, dated 2022)
Read-outs that look alike come from different tables or passages of the source.

What was measured:
full-length WT STING = full-length WT STING (Homo sapiens (Human), UniProt Q86WV6, H232R); assay: 3H-cGAMP filtration binding assay (WT STING); details: WT STING membrane
Experimental: The ability of compounds to bind STING is quantified by their ability to compete with tritiated cGAMP ligand for human STING receptor membrane using a radioactive filter-binding assay. The binding assay employs STING receptor obtained from Trichoplusia ni cell membranes (T.ni; Expression Systems, cat #94-002F, overexpressing full-length WT STING and tritiated cGAMP ligand.
The basic WT STING filtration assay protocol is as follows:
16 nM of [^3H] c-GAMP ligand was prepared by diluting into assay buffer, and 50 uL of this working stock was manually added to each well of the assay plate. After ligand addition, 2 uL of either titrated test compound, DMSO control (Sigma #276855), or cold cGAMP control was added to the appropriate wells using a BIOMEK FX. The serially titrated compound was prepared on a Hamilton STARPlus CORE in a 96-well plate (Greiner, #651201) using a 1:3 ten-point dose response format. Following compound addition, a 2.2 ug/ml working concentration of STING membrane (SEQ. ID. No. 3) was prepared by diluting concentrated membrane into assay buffer (1×PBS; Invitrogen #SH30028.02) and douncing 7× using a manual tissue homogenizer (Wheaton, #357546). 148 uL of this prepared membrane was then manually added to each well of a 96-well deep-well polypropylene plate (Fisher Scientific, #12-566-121). Compound, ligand, and membrane then incubated for 60 min at RT before the contents of each assay plate were filtered through a 96-well GF/B filter plate (PerkinElmer, #6005250) using a TOMTEC MACH III Cell Harvester equipped with 20 mM HEPES buffer (Fisher Scientific, #BP299500). The filter plates were then dried at 55° C. for 30 min using a pressurized VWR oven before 30 uL of ULTIMA GOLD F scintillate was added to each well. Tritium levels for each reaction well were then measured using a PerkinElmer TopCount plate reader.
After normalization to controls, the percent activity for each compound concentration was calculated by measuring the amount of remaining radioactivity. The plot of percent activity versus the log of compound concentration was fit with a 4-parameter dose response equation to calculate EC50 values.

THP1 cells = assay: IFN-β secretion in THP1 cell culture (5 h); assay type: cell-based, human; details: 30 μM compound, relative to 2′3′-cGAMP at 30 μM; for activation at 30 µM: Homo sapiens, THP-1, 5 h, read-out: % Effect at 30 μM relative to 2′3′-cGAMP
Experimental: The ability of compounds to stimulate the secretion of interferon-beta from THP1 cells was measured using a human IFN-β AlphaLISA kit (Perkin Elmer, Cat. No. AL265F). The basic protocol is as follows:
A Labcyte Echo 550 acoustic dispenser was used to transfer 120 nL of compound dissolved in DMSO into the wells of an empty, sterile 384-well microplate, (Corning, Cat. No. 3712). THP1 cells (American Type Culture Collection, Cat. No. TIB202) previously frozen in Recovery Medium (Life Technologies, Cat. No. 12648-010) were thawed and immediately diluted 10-fold into 37° C. assay medium (RPMI 1640+L-Glutamine & phenol red, Life Technologies, Cat. No. 11875-085; 0.5% heat inactivated fetal bovine serum, Sigma Aldrich, Cat. No. F4135; 1 mM Sodium Pyruvate, Life Technologies, Cat. No. 11360-070; lx non-essential amino acids; Life Technologies, Cat. No. 11140-050). The cell viability and count was ascertained using a Beckman Coulter V-Cell XR cell counter. The cell suspension was centrifuged at 200×g for 5 min at RT. Cells were resuspended to a density of 0.8×10^6/mL in 37° C. assay medium. Subsequent liquid transfers were performed using either a Matrix electronic multichannel pipette or an Agilent Bravo Automated Liquid Handling Platform.
The assay was started by dispensing 40 μL of the previously prepared cell suspension into the wells of the plate containing compounds. After 5 h incubation at 37° C., 5% CO2 in a humidified atmosphere, the plate of cells and compounds was centrifuged at 200×g for 5 min at RT. From each well, 5 μL of supernatant was transferred into corresponding wells of a white 384-well plate (Perkin Elmer, Cat. No. 6005620). To these supernatant-containing wells was added 10 μL of 5× Anti-Analyte Acceptor beads (50 μg/mL of AlphaLISA HiBlock Buffer) and incubated for 30 min at RT while shaking on an orbital plate shaker. To each well was added 10 μL of 5× Biotinylated Antibody Anti-analyte (5 nM in AlphaLISA HiBlock Buffer) and incubated on an orbital plate shaker for 60 min at RT or overnight at 4° C. To each well was added 25 μL of 2×SA-Donor beads (80 μg/mL in AlphaLISA HiBlock Buffer) and incubated for 30-45 min at RT in the dark while shaking on an orbital plate shaker. The plate was then read on a Perkin Elmer Envision (λex=680 nm, λem=570 nm). The percent effect of the AlphaLISA signal at each compound concentration was calculated based on 30 uM cGAMP positive controls and 0.3% DMSO negative controls. The plot of percent effect versus the log of compound concentration was fit with a 4-parameter concentration response equation to calculate EC50 values. The test compounds were tested at concentrations 30000, 10000, 3333, 1111, 370.4, 123.4, 41.2, 13.7, 4.6, and 1.5 nM with 0.3% residual DMSO. The control compound, cGAMP was tested at concentrations 100000, 33333, 11111, 3704, 1235, 412, 137, 46, and 15 nM with 0.3% residual DMSO.
Compounds of the disclosure were evaluated for IFN-β secretion in THP1 cell culture as described above. The following table tabulates the biological data for these compounds as percent activation relative to 2′3′-cGAMP at the 30 μM concentration.

[1] = competition with tritiated cGAMP ligand, read-out: EC50
[2] = EC50, competition with tritiated cGAMP ligand

full-length WT STING, sequence (Q86WV6 whole entry, looked up, stated change not applied): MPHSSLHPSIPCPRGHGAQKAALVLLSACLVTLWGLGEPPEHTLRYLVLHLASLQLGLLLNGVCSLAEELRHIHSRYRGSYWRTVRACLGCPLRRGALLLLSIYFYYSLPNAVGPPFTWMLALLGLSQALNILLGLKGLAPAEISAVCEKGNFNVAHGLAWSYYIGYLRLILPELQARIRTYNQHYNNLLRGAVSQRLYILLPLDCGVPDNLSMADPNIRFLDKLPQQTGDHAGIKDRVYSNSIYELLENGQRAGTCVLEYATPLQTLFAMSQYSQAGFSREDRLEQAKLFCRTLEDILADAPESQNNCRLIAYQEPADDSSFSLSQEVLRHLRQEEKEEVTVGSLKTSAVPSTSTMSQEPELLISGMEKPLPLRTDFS

Row | SMILES | EC50 (full-length WT STING; [1]) [nM] | % Effect at 30 μM relative to 2′3′-cGAMP (THP1 cells) [%] | EC50 (full-length WT STING; [2]) [nM] | activation at 30 µM (THP1 cells) [%]
1 | Nc1nc2c(ncn2[C@@H]2O[C@@H]3COP(=S)(S)O[C@H]4C[C@H](n5cnc6c(N)ncnc65)O[C@@H]4COP(O)(=S)O[C@@H]2C3)c(=O)[nH]1 (single isomer, unassigned) [Example 4] | < 1 | 146 | – | –
2 | Nc1nc2c(ncn2[C@@H]2O[C@@H]3COP(O)(=S)O[C@H]4C[C@H](n5cnc6c(N)ncnc65)O[C@@H]4COP(=S)(S)O[C@@H]2C3)c(=O)[nH]1 (single isomer, unassigned) [Example 10] | – | 91 | 6 | –
3 | Nc1nc2c(ncn2[C@@H]2O[C@@H]3COP(O)(=S)O[C@H]4C[C@H](n5cnc6c(N)ncnc65)O[C@@H]4COP(=S)(S)O[C@@H]2C3)c(=O)[nH]1 (single isomer, unassigned) [Example 11] | – | 51 | 34 | –
4 | Nc1nc2c(ncn2[C@@H]2O[C@@H]3COP(O)(=S)O[C@H]4[C@H](F)[C@H](n5cnc6c(N)ncnc65)O[C@@H]4COP(=S)(S)O[C@@H]2[C@@H]3F)c(=O)[nH]1 (single isomer, unassigned) [Example 12] | 171 | 116 | – | –
5 | Nc1nc2c(ncn2[C@@H]2O[C@@H]3COP(O)(=S)O[C@H]4[C@H](F)[C@H](n5cnc6c(N)ncnc65)O[C@@H]4COP(=S)(S)O[C@@H]2[C@@H]3F)c(=O)[nH]1 (single isomer, unassigned) [Example 13] | 223 | 95 | – | –
6 | Nc1nc2c(ncn2[C@@H]2O[C@@H]3COP(O)(=S)O[C@H]4C[C@H](n5ccc6c(N)ncnc65)O[C@@H]4COP(=S)(S)O[C@@H]2C3)c(=O)[nH]1 (single isomer, unassigned) [Example 14] | 244 | – | – | 422
7 | Nc1nc2c(ncn2[C@@H]2O[C@@H]3COP(O)(=S)O[C@H]4[C@H]5OC[C@]4(COP(=S)(S)O[C@@H]2[C@H]3F)O[C@H]5n2cnc3c(N)ncnc32)c(=O)[nH]1 (single isomer, unassigned) [Example 15] | 79 | – | – | 357
8 | Nc1nc2c(ncn2[C@@H]2O[C@@H]3COP(=S)(S)O[C@H]4C[C@H](n5cnc6c(=O)[nH]cnc65)O[C@@H]4COP(O)(=S)O[C@@H]2C3)c(=O)[nH]1 (single isomer, unassigned) [Example 24] | 19 | 168 | – | –
9 | Nc1nc2c(ncn2[C@@H]2O[C@@H]3COP(=S)(S)O[C@H]4C[C@H](n5cnc6c(=O)[nH]cnc65)O[C@@H]4COP(O)(=S)O[C@@H]2C3)c(=O)[nH]1 (single isomer, unassigned) [Example 25] | 2 | 281 | – | –
10 | Nc1nc2c(ncn2[C@@H]2O[C@@H]3COP(=S)(S)O[C@H]4C[C@H](n5cnc6c(N)ncnc65)O[C@@H]4COP(=O)(O)O[C@@H]2C3)c(=O)[nH]1 (stereo partly drawn) [Example 18, 2-amino-9-[(5S,7R,8R,12aR,14R,15aS)-14-(6-amino-9H-purin-9-yl)-10-hydroxy-10-oxido-2-sulfanyl-2-sulfidooctahydro-12H-5,8-methanofuro[3,2-1][1,3,6,9,11,2,10]pentaoxadiphosphacyclotetradecin-7-yl]-1,9-dihydro-6H-purin-6-one] | 1 | – | – | 153
11 | Nc1nc2c(ncn2[C@@H]2O[C@@H]3COP(=S)(S)O[C@H]4[C@H](F)[C@H](n5cnc6c(N)ncnc65)O[C@@H]4COP(=O)(O)O[C@@H]2[C@@H]3F)c(=O)[nH]1 (stereo partly drawn) [Example 19, 2-amino-9-[(5R,7R,8S,12aR,14R,15S, 15aR,16R)-14-(6-amino-9H-purin-9-yl)-15,16-difluoro-10-hydroxy-10-oxido-2-sulfanyl-2-sulfidooctahydro-12H-5,8-methanofuro[3,2-1][1,3,6,9,11,2,10]pentaoxadiphosphacyclotetradecin-7-yl]-1,9-dihydro-6H-purin-6-one] | 1 | – | – | 250
12 | Nc1nc2c(ncn2[C@@H]2O[C@@H]3COP(=O)(O)O[C@H]4[C@H](F)[C@H](n5cnc6c(N)ncnc65)O[C@@H]4COP(=S)(S)O[C@@H]2[C@@H]3F)c(=O)[nH]1 (stereo partly drawn) [Example 22, 2-amino-9-[(5R,7R,8S,12aR,14R,15S,15aR,16R)-14-(6-amino-9H-purin-9-yl)-15,16-difluoro-2-hydroxy-2-oxido-10-sulfanyl-10-sulfidooctahydro-12H-5,8-methanofuro[3,2-l][1,3,6,9,11,2,10]pentaoxadiphosphacyclotetradecin-7-yl]-1,9-dihydro-6H-purin-6-one] | – | – | 517 | 117
13 | Nc1nc2c(ncn2[C@@H]2O[C@@H]3COP(=O)(O)O[C@H]4C[C@H](n5cnc6c(N)ncnc65)O[C@@H]4COP(=S)(S)O[C@@H]2C3)c(=O)[nH]1 (stereo partly drawn) [Example 23, 2-amino-9-[(5S,7R,8R,12aR,14R,15aS)-14-(6-amino-9H-purin-9-yl)-2-hydroxy-2-oxido-10-sulfanyl-10-sulfidooctahydro-12H-5,8-methanofuro[3,2-1] [1,3,6,9,11,2,10]pentaoxadiphosphacyclotetradecin-7-yl]-1,9-dihydro-6H-purin-6-one] | 69 | – | – | 152
14 | Nc1nc2c(ncn2[C@@H]2O[C@@H]3COP(=S)(S)O[C@H]4[C@H](F)[C@H](n5cnc6c(=O)[nH]cnc65)O[C@@H]4COP(O)(=S)O[C@@H]2[C@@H]3F)c(=O)[nH]1 (stereo partly drawn) [Example 27, 2-amino-9-[(5R,7R,8S,12aR,14R,15S,15aR,16R)-15,16-difluoro-10-hydroxy-14-(6-oxo-1,6-dihydro-9H-purin-9-yl)-2-sulfanyl-2,10-disulfidooctahydro-12H-5,8-methanofuro[3,2-1][1,3,6,9,11,2,10]pentaoxadiphosphacyclotetradecin-7-yl]-1,9-dihydro-6H-purin-6-one] | – | – | – | 164
